Results reported in ChEMBL document CHEMBL4354822, “Ligand-Based Design of Nondimethylphenyl-Diarylpyrimidines with Improved Metabolic Stability, Safety, and Oral Pharmacokinetic Profiles” (J Med Chem, 2019).

Experiments:
[1] = Aqueous solubility of compound at 2 mg measured for 24 hrs by HPLC analysis; format: physicochemical; conditions: aqueous medium
[2] = system: Human immunodeficiency virus 1; experiment: Antiviral activity against HIV1 3B infected in human MT4 cells incubated assessed as reduction in virus-induced cytopathic effect for 5 days by MTT assay; format: functional, organism-based; conditions: Human immunodeficiency virus 1, 3B, MT4, 120 h
MT4 = experiment: Cytotoxicity against human MT4 cells assessed as reduction in cell viability incubated for 5 days by MTT assay; format: functional; conditions: MT4, 120 h
[3] = Selectivity index, ratio of CC50 for human MT4 cells to EC50 for antiviral activity against HIV1 3B infected in human MT4 cells incubated for 5 days by MTT assay; format: toxicity, cell-based; conditions: MT4 cells (uninfected for CC50; HIV-1 3B infected for EC50)
[4] = target: Human immunodeficiency virus type 1 reverse transcriptase (Human immunodeficiency virus 1) (UniProt Q72547); experiment: Ratio of IC50 for nevirapine to IC50 for test compound for recombinant wild type HIV1 reverse transcriptase p66/p51
[5] = system: Human immunodeficiency virus 1; experiment: Antiviral activity against HIV1 harboring reverse transcriptase L100I mutant infected in human MT4 cells assessed as reduction in virus-induced cytopathic effect incubated for 5 days by MTT assay; format: functional, organism-based; conditions: Human immunodeficiency virus 1, MT4, 120 h
[6] = system: Human immunodeficiency virus 1; experiment: Antiviral activity against HIV1 harboring reverse transcriptase K103N mutant infected in human MT4 cells assessed as reduction in virus-induced cytopathic effect incubated for 5 days by MTT assay; format: functional, organism-based; conditions: Human immunodeficiency virus 1, MT4, 120 h
[7] = system: Human immunodeficiency virus 1; experiment: Antiviral activity against HIV1 harboring reverse transcriptase Y181C mutant infected in human MT4 cells assessed as reduction in virus-induced cytopathic effect incubated for 5 days by MTT assay; format: functional, organism-based; conditions: Human immunodeficiency virus 1, MT4, 120 h
[8] = system: Human immunodeficiency virus 1; experiment: Antiviral activity against HIV1 harboring reverse transcriptase Y188L mutant infected in human MT4 cells assessed as reduction in virus-induced cytopathic effect incubated for 5 days by MTT assay; format: functional, organism-based; conditions: Human immunodeficiency virus 1, MT4, 120 h
[9] = system: Human immunodeficiency virus 1; experiment: Antiviral activity against HIV1 harboring reverse transcriptase E138K mutant infected in human MT4 cells assessed as reduction in virus-induced cytopathic effect incubated for 5 days by MTT assay; format: functional, organism-based; conditions: Human immunodeficiency virus 1, MT4, 120 h
[10] = target: Human immunodeficiency virus type 1 reverse transcriptase (Human immunodeficiency virus 1, UniProt Q72547); experiment: Inhibition of recombinant wild type HIV1 reverse transcriptase p66/p51 incubated for 40 mins by picogreen dye-based spectrofluorometric analysis

Structure (SMILES)	solubility at 24 h [1] [µg/mL]	EC50 [2] [nM]	CC50 (MT4) [µM]	selectivity ratio at 120 h [3]	Ratio IC50 [4]	EC50 [5] [nM]	EC50 [6] [nM]	EC50 [7] [nM]	EC50 [8] [µM]	EC50 [9] [nM]	IC50 [10] [nM]
N#Cc1ccc(Nc2nccc(Nc3c(F)cc(-c4ccc(C#N)cc4)cc3F)n2)cc1.O=S(=O)(O)O	0.36										
COc1cc(Oc2ccnc(Nc3ccc(C#N)cc3)n2)ccc1-c1ccc(C#N)cc1		3.1	> 298	> 100000							
N#Cc1ccc(Nc2nccc(Nc3ccc(-c4ccc(C#N)cc4)cc3F)n2)cc1		11.3	308	> 27300							
N#Cc1ccc(Nc2nccc(Nc3c(F)cc(-c4ccc(C#N)cc4)cc3F)n2)cc1.O=S(=O)(O)c1ccccc1	0.39										
N#Cc1ccc(Nc2nccc(Oc3ccc(-c4ccc(C#N)cc4)c(Cl)c3)n2)cc1		9.9	31.1	3130							
N#Cc1ccc(Nc2nccc(Oc3ccc(-c4ccc(C#N)cc4F)cc3F)n2)cc1		3.1	> 294	> 98000							
Cc1cc(Oc2ccnc(Nc3ccc(C#N)cc3)n2)ccc1-c1ccc(C#N)cc1		719	29.4	41							
N#Cc1ccc(Nc2nccc(Oc3ccc(-c4ccc(C#N)cc4)c(C(F)(F)F)c3)n2)cc1		18.2	> 273	> 15000							
Cc1cc(C#N)ccc1-c1ccc(Oc2ccnc(Nc3ccc(C#N)cc3)n2)c(F)c1		66.5	> 297	> 4460							
N#Cc1ccc(Nc2nccc(Nc3c(F)cc(-c4ccc(C#N)cc4)cc3F)n2)cc1.O=CO	0.35										
COc1cc(Nc2ccnc(Nc3ccc(C#N)cc3)n2)ccc1-c1ccc(C#N)cc1		17.5	5.26	304							
Cc1cc(Nc2ccnc(Nc3ccc(C#N)cc3)n2)ccc1-c1ccc(C#N)cc1		13.9	12.4	894							
N#Cc1ccc(Nc2nccc(Nc3ccc(-c4ccc(C#N)cc4)c(F)c3)n2)cc1		14.5	> 271	> 18600							
N#Cc1ccc(Nc2nccc(Nc3c(F)cc(-c4ccc(C#N)cc4)cc3F)n2)cc1					21 to 109						
Cc1cc(-c2ccc(C#N)c(F)c2)ccc1Oc1ccnc(Nc2ccc(C#N)cc2)n1		17.1	> 297	> 17400							
Cc1cc(-c2ccc(C#N)cc2F)ccc1Oc1ccnc(Nc2ccc(C#N)cc2)n1		10.7	> 297	> 27500	21 to 109	13.2	4.7	14.6	> 294	4.9	8.7
O=C1Nc2ccc(Cl)cc2[C@@](C#CC2CC2)(C(F)(F)F)O1 [EFAVIRENZ]		7.4	> 6.34			44	102	7.3	0.29	6.3	

Structure (SMILES)	solubility at 24 h [1] [µg/mL]	EC50 [2] [nM]	CC50 (MT4) [µM]	selectivity ratio at 120 h [3]	Ratio IC50 [4]	EC50 [5] [nM]	EC50 [6] [nM]	EC50 [7] [nM]	EC50 [8] [µM]	EC50 [9] [nM]	IC50 [10] [nM]
COc1cc(-c2ccc(C#N)cc2)ccc1Oc1ccnc(Nc2ccc(C#N)cc2)n1		1.6	> 298	> 192000	21 to 109	11.9	4.5	16.7	> 298	2	9.3
N#Cc1ccc(Nc2nccc(Oc3ccc(-c4ccc(C#N)c(Cl)c4)cc3Cl)n2)cc1		63.5	14.9	232							
N#Cc1ccc(Nc2nccc(Oc3ccc(-c4ccc(C#N)cc4)cc3Cl)n2)cc1		1.7	> 295	> 179000	21 to 109	11.3	< 3.8	13.7	0.33	< 3.8	8.3
N#Cc1ccc(Nc2nccc(Oc3ccc(-c4ccc(C#N)cc4)c(F)c3)n2)cc1		3.2	> 307	> 98000							
N#Cc1ccc(Nc2nccc(Oc3ccc(-c4ccc(C#N)cc4)cc3F)n2)cc1		1.8	> 307	> 172000	21 to 109	63.9	12.3	49.1	> 307	6.4	< 3.7
COc1cc(-c2ccc(C#N)cc2)ccc1Nc1ccnc(Nc2ccc(C#N)cc2)n1		2.9	> 299	> 106000	21 to 109	122	18.4	158	> 299	7.4	6
N#Cc1ccc(Nc2nccc(Oc3c(F)cc(-c4ccc(C#N)cc4)cc3F)n2)cc1		3.3	> 294	> 89300	21 to 109	17.2	3.5	23.5	> 294	5.2	13.2
Cc1ccnc2c1NC(=O)c1cccnc1N2C1CC1 [NEVIRAPINE]			> 15			2100	> 10100	> 15900			
N#Cc1ccc(Nc2nccc(Oc3ccc(-c4ccc(C#N)cc4)c(F)c3F)n2)cc1		15.3	> 294	> 19200							
Cc1cc(-c2ccc(C#N)cc2)ccc1Nc1ccnc(Nc2ccc(C#N)cc2)n1		2.1	9.2	4480	21 to 109	16.7	3	9	0.24	3	< 6.2
Cc1cc(-c2ccc(C#N)cc2)ccc1Oc1ccnc(Nc2ccc(C#N)cc2)n1		2.5	> 310	> 122000	21 to 109	47.1	8.7	18.4	14.4	6.2	5.5
Cc1cc(-c2ccc(C#N)cc2)c(Cl)cc1Oc1ccnc(Nc2ccc(C#N)cc2)n1		4.6	> 286	> 63300	21 to 109	8.5	3.7	32	> 286	11.9	18.8
N#Cc1ccc(Nc2nccc(Oc3ccc(-c4ccc(C#N)c(F)c4)cc3F)n2)cc1		120	> 294	> 2430							
Cc1cc(-c2ccc(Oc3ccnc(Nc4ccc(C#N)cc4)n3)c(F)c2)ccc1C#N		49.9	> 297	> 6020							
N#Cc1ccc(Nc2nccc(Oc3ccc(-c4ccc(C#N)cc4Cl)cc3Cl)n2)cc1		4990	> 273	> 55							
N#Cc1ccc(Nc2nccc(Oc3ccc(-c4ccc(C#N)cc4)cc3C(F)(F)F)n2)cc1		6.8	> 273	> 40600							
